Several values for one entry are separate records, joined by “and”; a condition that tells them apart may be missing. Equal values may be shown once.
System: SP release from isolated rat tracheae
Assay: Electrical field stimulation (EFS)-evoked release of SP from isolated rat tracheae, radioimmunoassay
Type: cell-based
Settings: for SP Release into the incubation medium / Absolute release of SP: individual experiments 1-5; for SP Release into the incubation medium, Mean / Absolute release of SP, Mean: mean of 5 experiments
Method: For the in vitro release experiments, a 10 mg/ml (14.62 mM; MW 684) stock solution of CYT-1010 was made in DMSO, which was further diluted with the oxygenated Krebs solution used in the organ bath: 5.5 μl of this CYT-1010 stock solution was added into 40 ml Krebs to make the highest applied 2 μM concentration of compound CYT-1010. Further dilutions to obtain the lower concentrations were prepared with Krebs solution.
The incubation media containing the respective CYT-1010 concentrations were administered in the stimulated and post-stimulated 8-min fractions.
Since even the highest, 2 μM, concentration of CYT-1010 solution contained negligible amount of DMSO, simple Krebs solution was used in the control experiments.
Rats were exsanguinated in deep anaesthesia (sodium thiobarbital, 50 mg/kg i.p.), then the whole trachea was removed and cleaned of fat and adhering connective tissues. Tracheae from two rats were placed into the same 1.8 ml organ bath to obtain sufficient amount of released peptide and perfused (1 ml/min) with pH-(7.2) controlled oxygenized Krebs solution for 60 minutes (equilibration period) at 37° C. temperature. After discontinuation of the flow, the solution was changed three times for eight minutes to produce pre-stimulated, stimulated, post-stimulated fractions.
Electrical field stimulation (40 V, 0.1 ms, 10 Hz for 120 s; 1200 pulses) was performed to elicit neurotransmitter release at the beginning of the second 8-minute period. Stimulation with 0.1 ms pulse width selectively activates very fast Na^+ channels, which are only present in the membrane of neural structures (Birmingham and Wilson, 1963; Coburn and Tomita 1973; Szolcsányi and Barthó, 1982); therefore, it excites nerve endings without influencing other excitable cells in the tracheae such as smooth muscle cells.
Krebs solution was used in the pre-stimulated fraction for determining the basal CGRP outflow. During the stimulated and post-stimulated fractions, the incubation medium contained the examined concentrations of CYT-1010 (10, 100, 500, 1000 and 2000 nM) in separate experiments, and only one concentration was applied to the same tracheae to avoid neuropeptide depletion. In each group, 5 experiments were performed in parallel in 5 perfusion systems to provide n=5 data per group (10 tracheae per group).
60 male Wistar rats (250-300 g) altogether were divided into 6 experimental groups: Group 1: controls (n=10); Group 2: 10 nM CYT-1010 (n=10); Group 3: 100 nM CYT-1010 (n=10); Group 4: 500 nM CYT-1010 (n=10); Group 5: 1000 nM CYT-1010 (n=10); and Group 6: 2000 nM CYT-1010 (n=10). The total study was performed on three experimental days, two groups every occasion.
Calcitonin gene-related peptide (CGRP) and substance P (SP) concentrations were determined from 400-400 μl samples of organ fluid of the preparations by means of radioimmunoassay methods described in Nemeth et al., 1996, 1998, 1999, 2006; Helyes et al., 1997, 2001, 2006; Borzsei et al., 2008). Each of these publications is incorporated herein by reference in its entirety.
The released amount of the peptides CGRP and SP was calculated as fmol peptide per mg wet tissue (trachea). The absolute release in response to EFS in each experiment was calculated by adding peptide release in the second and third 8-min fractions and then taking off the basal release measured in the first (pre-stimulated) fraction. The detection limits of the RIA assays were 0.2 fmol/tube and 2 fmol/tube for CGRP and SP, respectively.

NC(Cc1ccc(O)cc1)C(=O)NC1CCCCNC(=O)C(Cc2ccccc2)NC(=O)C(Cc2c[nH]c3ccccc23)NC1=O [CYT-1010, H-Tyr-c-[D-Lys-Trp-Phe]]
Inhibition of EFS-evoked SP outflow (500 nM, 0.5 µM): 64.3% and 64%
Inhibition of EFS-evoked SP outflow (1000 nM (maximal inhibition), 1 µM): 71.8% and 72%
SP release, % increase above baseline (1 microM, after stimulation): 16.32%
SP Release into the incubation medium (1 microM, after stimulation (post-stimulated fraction)): 1.663 fmol/mg wet tissue and 1.966 fmol/mg wet tissue and 1.892 fmol/mg wet tissue and 1.551 fmol/mg wet tissue and 1.397 fmol/mg wet tissue
SP Release into the incubation medium, Mean (1 microM, after stimulation): 1.694 fmol/mg wet tissue
SP release, % increase above baseline (1 microM, before stimulation): 0.00%
SP Release into the incubation medium (1 microM, before stimulation (pre-stimulated fraction)): 1.398 fmol/mg wet tissue and 1.806 fmol/mg wet tissue and 1.860 fmol/mg wet tissue and 1.412 fmol/mg wet tissue and 0.805 fmol/mg wet tissue
SP Release into the incubation medium, Mean (1 microM, before stimulation): 1.456 fmol/mg wet tissue
SP release, % increase above baseline (1 microM, during stimulation): 13.32%
SP Release into the incubation medium (1 microM, during stimulation (stimulated fraction)): 1.558 fmol/mg wet tissue and 1.948 fmol/mg wet tissue and 1.992 fmol/mg wet tissue and 1.422 fmol/mg wet tissue and 1.331 fmol/mg wet tissue
SP Release into the incubation medium, Mean (1 microM, during stimulation): 1.650 fmol/mg wet tissue
Absolute release of SP (1 microM): 0.425 fmol/mg wet tissue and 0.302 fmol/mg wet tissue and 0.164 fmol/mg wet tissue and 0.149 fmol/mg wet tissue and 1.118 fmol/mg wet tissue
Absolute release of SP, Mean (1 microM): 0.432 fmol/mg wet tissue
SP release, % increase above baseline (2 microM, after stimulation): 6.72%
SP Release into the incubation medium (2 microM, after stimulation (post-stimulated fraction)): 2.348 fmol/mg wet tissue and 1.531 fmol/mg wet tissue and 2.246 fmol/mg wet tissue and 1.543 fmol/mg wet tissue and 1.944 fmol/mg wet tissue
SP Release into the incubation medium, Mean (2 microM, after stimulation): 1.922 fmol/mg wet tissue
SP release, % increase above baseline (2 microM, before stimulation): 0.00%
SP Release into the incubation medium (2 microM, before stimulation (pre-stimulated fraction)): 2.406 fmol/mg wet tissue and 1.582 fmol/mg wet tissue and 2.020 fmol/mg wet tissue and 1.132 fmol/mg wet tissue and 1.867 fmol/mg wet tissue
SP Release into the incubation medium, Mean (2 microM, before stimulation): 1.801 fmol/mg wet tissue
SP release, % increase above baseline (2 microM, during stimulation): 56.23%
SP Release into the incubation medium (2 microM, during stimulation (stimulated fraction)): 3.130 fmol/mg wet tissue and 2.398 fmol/mg wet tissue and 2.334 fmol/mg wet tissue and 2.078 fmol/mg wet tissue and 4.132 fmol/mg wet tissue
SP Release into the incubation medium, Mean (2 microM, during stimulation): 2.814 fmol/mg wet tissue
Absolute release of SP (2 microM): 0.666 fmol/mg wet tissue and 0.765 fmol/mg wet tissue and 0.540 fmol/mg wet tissue and 1.357 fmol/mg wet tissue and 2.342 fmol/mg wet tissue
Absolute release of SP, Mean (2 microM): 1.134 fmol/mg wet tissue
Effect on stimulation-evoked SP release (10-2000 nM added to the second and third fractions): significantly inhibited
EC50 (sigmoidal concentration-response curve, non-linear least square fit, 10-2000 nM, read-out: EC50 for inhibition of electrically-evoked SP release): 0.034 µM

Reference: patent publication US11324798B2, “Materials and methods for treatment of inflammation” (CYTOGEL PHARMA, LLC, priority 2010, dated 2022)
